Where two headings read alike, the source gives them in different places.

We go through 7 compounds from publication PMC3502511, “Inhibition of the Prokaryotic Pentameric Ligand-Gated Ion Channel ELIC by Divalent Cations” (PLoS Biology, 2012).

What all share (format): cell-based, Erwinia chrysanthemi
The target of one assay is T1, ELIC R91A (Dickeya chrysanthemi, UniProt P0C7B7, INS163G/R91A).
T1 construct: expressed in transfected cells; host or cells: X. laevis oocytes
Briefly: Two-electrode voltage clamp, ELIC R91A in oocytes. The conditions noted are these: for Slope: Schild plot slope; for pA: agonist cysteamine. The method, then: (§1) Constructs containing the gene of either the WT or mutant channels preceded by the signal sequence of the chicken α7nAchR were cloned into the pTLN vector for expression in X. laevis oocytes. After linearization of the plasmid DNA by MluI, capped complementary RNA was transcribed with the mMessage mMachine kit (Ambion) and purified with the RNeasy kit (Qiagen). For expression, 1–50 ng of RNA was injected into defolliculated oocytes. Two-electrode voltage clamp measurements were performed 1 d after injection at 20°C (OC-725B, Warner Instrument Corp.). Currents were recorded in bath solutions containing 10 mM HEPES (pH 7), 130 mM NaCl, and the indicated concentrations of cysteamine and divalent cations. In case of solutions containing Zn^2+, cysteamine was replaced by propylamine. The membrane potential in all dose–response measurements was set to −40 mV. As ELIC is permeable to divalent cations, we tested if endogenous calcium-activated chloride channels affected our measurements. To chelate intracellular calcium ions, the oocytes were incubated for 15 to 30 min in bath solutions lacking divalent ions but containing 10 µM BAPTA-AM.
On the technique in general: In two-electrode clamp one electrode senses voltage and the other passes current.

Another assay deals with T2, ELIC D113A/D158A (Dickeya chrysanthemi, UniProt P0C7B7, D113A/D158A/INS163G).
T2 construct: expressed in transfected cells; host or cells: X. laevis oocytes
Briefly: cell-based. The conditions noted are these: for Slope: Schild plot slope; for EC50: 113A/158A. The procedure:
as §1

The target in assay [1] is T3, ELIC WT (Dickeya chrysanthemi, UniProt P0C7B7, INS163G).
T3 construct: expressed in transfected cells; host or cells: X. laevis oocytes (cRNA injection, pTLN vector)
Nature of the assay: cell-based. The conditions noted are these: for Slope: Schild plot slope. The method, then:
as §1

For assay [2], the target named is T4, ELIC WT (Dickeya chrysanthemi, UniProt P0C7B7).
T4 construct: expressed in transfected cells; host or cells: X. laevis oocytes (cRNA injection, pTLN vector)
Nature of the assay: cell-based. The conditions noted are these: WT, agonist propylamine. The procedure: as §1

The next assay has as its target T5, ELIC H168A (Dickeya chrysanthemi, UniProt P0C7B7, H168A/INS163G).
T5 construct: expressed in transfected cells; host or cells: X. laevis oocytes
Briefly: Two-electrode voltage clamp, ELIC H168A in oocytes. The note with it: agonist propylamine. The procedure:
as §1

Another assay deals with T6, ELIC H176A (Dickeya chrysanthemi, UniProt P0C7B7, H176A/INS163G).
T6 construct: expressed in transfected cells; host or cells: X. laevis oocytes
Nature of the assay: Two-electrode voltage clamp, ELIC H176A in oocytes. The conditions noted are these: agonist propylamine. The method, then:
as §1

The next assay deals with T7, ELIC (Dickeya chrysanthemi, UniProt P0C7B7, INS163G).
T7 construct: expressed in transfected cells; host or cells: HEK 293 cells (ATCC CRL-1573), pcDNA3
Briefly: Agonist concentration jumps, outside-out patches from HEK 293 cells expressing ELIC. The method, then:
Human embryonic kidney 293 cells (American Type Culture Collection-CRL-1573;LGC Promochem) were maintained at 37°C in a 95% air/5% CO2 incubator in DMEM supplemented with 0.11 g/l sodium pyruvate, 10% (v/v) heat-inactivated fetal bovine serum, 100 U/ml penicillin G, 100 µg/ml streptomycin sulfate, and 2 mM L-glutamine (Invitrogen). Cells (passaged every 2 d, up to 30 times) were plated and transfected by calcium phosphate-DNA coprecipitation, with a total amount of DNA of 3 µg/dish (82% ELIC and 18% eGFP DNA, both subcloned in pcDNA3).
Cells were bathed in an extracellular solution containing (mM): 150 KCl, 0.05 or 0.2 CaCl2, and 10 HEPES, pH adjusted to 7.4 with KOH (osmolarity 310 mOsm). Patch pipettes were pulled from thick-walled borosilicate glass (GC150F; Harvard Apparatus) and fire polished to a resistance of 8–12 MΩ. Intracellular solution contained (mM): 150 KCl, 0.5 CaCl2, 5 EGTA, and 10 HEPES, pH adjusted to 7.4 with KOH. Agonist-evoked currents were recorded at 20°C with an Axopatch 200B amplifier (Molecular Devices) from outside-out patches held at −100 mV. Patches were stepped to this holding voltage 0.2 s before the agonist was applied and otherwise held at −40 mV. No correction for junction potential was applied (calculated value 0.2 mV). Currents were filtered at 5 kHz, digitized at 50 kHz with Digidata 1322A, and saved directly on computer with Clampex software (all MDS Analytical Technologies).
All concentration jumps were performed using a piezo stepper (Burleigh instruments) with an application tool made from theta tube glass (Hilgenberg; final tip diameter, 150 µm). Voltage commands for the piezo stepper were 200 ms square pulses conditioned by low-pass eight-pole Bessel filtering (−3 dB frequency 5 kHz) to smooth oscillations. Actual exchange time was estimated by recording the open-tip response to the application of diluted extracellular solution (70% water) after rupture of the patch. Only patches in which the 20%–80% exchange time was faster than 250 µs were included in the analysis.
Agonist solutions were freshly prepared every day from 1 M stock solutions. Propylamine was applied at a concentration known to elicit maximum response (20 mM and 50 mM, for 50 and 200 µM Ca^2+, respectively). Traces shown are averages of 5 or 10 individual agonist currents, separated by at least 10 s. Responses were averaged, and the time course of activation and deactivation (between 95% and 5% of the peak current level) was fitted with one exponential component (program Clampfit 9.0).

The mark [3] stands for this setting: D113A/D158A, agonist cysteamine.
[4] abbreviates: WT, Schild analysis, agonist cysteamine, read-out: Ki app.
The mark [5] stands for this setting: WT, Schild plot x-intercept (log of mM), agonist cysteamine, −40 mV.
The mark [6] stands for this setting: Ca^2+ 50 µM, propylamine 20 mM (last line, repeat).
Where [7] appears, read: Ca^2+ 50 µM, propylamine 20 mM, −100 mV (first line).
[8] abbreviates: Ca^2+ 200 µM, propylamine 20 mM.
[9] abbreviates: Ca^2+ 200 µM, propylamine 50 mM.

Regarding `C[N+](C)(C)C` [TMA, tetramethylammonium], at ELIC R91A (R91A, Schild analysis, read-out: Ki app), the Ki was 6 mM. At ELIC R91A (R91A), this compound had a Slope of 0.8±0.1 and a pA of 0.78±0.18.
As to `[Ba+2]` [Ba^2+, barium], the Ki on ELIC D113A/D158A (D113A/D158A, Schild analysis, read-out: Ki app) stood at 6.5 mM; on ELIC WT [1] (setting [4]) it was 0.85 mM. The Slope amounted to 0.6±0.02 on ELIC D113A/D158A (D113A/D158A) and 1.1±0.03 at ELIC WT [1] (WT, agonist cysteamine). In addition, the “effects on the agonist dose-response curves in the double mutant” value on ELIC D113A/D158A (setting [3]) was “virtually abolishes”. Moreover, the figures for the pA at ELIC D113A/D158A (setting [3]) and on ELIC WT [1] (setting [5]) were 0.81±0.02 and −0.07±0.01, respectively.
`[Mg+2]` [Mg^2+]: on ELIC WT [1] (setting [4]), the Ki turned out to be 0.43 mM. This compound gave a Slope at ELIC WT [1] (WT, agonist cysteamine) of 0.9±0.01. The pA at ELIC WT [1] (setting [5]) was −0.36±0.02.
As for `[Zn+2]` [Zn^2+, zinc], the “modulation in the double mutant” value at ELIC D113A/D158A (D113A/D158A, agonist propylamine) was “abolish”. The Ki was 0.007 mM at ELIC WT [1] (WT, Schild analysis, agonist propylamine, read-out: Ki app) and 0.008 mM at ELIC WT [1] (WT, agonist propylamine, read-out: Schild plot x-intercept). In addition, the Slope on ELIC WT [1] (WT, agonist propylamine) is listed as 1.2±0.01. Moreover, on ELIC WT [1] (WT, Schild plot x-intercept, agonist propylamine), the pA is −2.16±0.13.
Take `CC(=O)OCC[N+](C)(C)C` [ACh, acetylcholine]: the Slope is given as 0.8±0.1 on ELIC D113A/D158A (D113A/D158A); 1.1±0.01 at ELIC WT [1] (WT/1 mM Ca^2+); 0.9±0.1 at ELIC WT [1] (WT/.25 mM Ca^2+); 0.9±0.01 on ELIC WT [1] (WT/.5 mM Ca^2+); 1.0±0.1 on ELIC WT [1] (WT, agonist cysteamine); “unity” at ELIC WT [1] (WT, agonist cysteamine, listed as acetylcholine). The same compound registered a Slope at ELIC R91A (R91A) of 0.7±0.1. Besides, the pA is given as 0.32±0.06 on ELIC D113A/D158A (setting [3]); 0.35±0.01 at ELIC WT [1] (WT/1 mM Ca^2+ present, agonist cysteamine); 0.06±0.06 at ELIC WT [1] (WT/.25 mM Ca^2+ present, agonist cysteamine); 0.11±0.09 on ELIC WT [1] (WT/.5 mM Ca^2+ present, agonist cysteamine); 0.21±0.06 at ELIC WT [1] (setting [5]); −0.77±0.05 on ELIC R91A (R91A). In addition, the “increase in the Schild affinity in the mutant R91A” value at ELIC R91A (R91A versus WT) was found to be 10 fold.
On to `[Sr+2]` [Sr^2+], for which the Ki at ELIC WT [1] (setting [4]) came out at 0.85 mM. Also, the Slope on ELIC WT [1] (WT, agonist cysteamine) amounted to 0.9±0.02. Besides, the pA on ELIC WT [1] (setting [5]) was −0.07±0.02.
Take `CCCN` [propylamine]: the EC50 (as a rule, the midpoint of the concentration-response curve) on ELIC D113A/D158A (Zn^2+ 0 mM, agonist propylamine) turned out to be 3.7 mM; on ELIC D113A/D158A (Zn^2+ 0.01 mM, agonist propylamine) it was 4.56 mM; on ELIC D113A/D158A (Zn^2+ 0.1 mM, agonist propylamine) it was 4.22 mM; on ELIC WT [2] (Zn^2+ 0.01 mM), 0.92 mM; on ELIC WT [2] (Zn^2+ 0.05 mM), 3.72 mM; on ELIC WT [2] (Zn^2+ 0.1 mM), 10.1 mM. Moreover, the EC50 at ELIC H168A (Zn^2+ 0 mM) was determined as 0.67 mM; on ELIC H168A (Zn^2+ 0.01 mM), 1.17 mM; on ELIC H168A (Zn^2+ 0.05 mM), 4.82 mM; at ELIC H168A (Zn^2+ 0.1 mM) it was 12.2 mM; on ELIC H176A (Zn^2+ 0 mM), 5.16 mM; at ELIC H176A (Zn^2+ 0.01 mM), 11.9 mM. For the same compound, the EC50 on ELIC H176A (Zn^2+ 0.025 mM) was found to be 25.5 mM. In addition, the τdecay at ELIC (setting [6]) came out at 33.5 ± 6.9 ms; at ELIC (setting [7]), 34.7 ± 5.6 ms; at ELIC (setting [8]), 23.9 ± 3.1 ms; at ELIC (setting [9]), 36.7 ± 12.7 ms. For the same compound, the τrise on ELIC (setting [6]) amounted to 19.6 ± 3.1 ms; at ELIC (setting [7]) it was 16.7 ± 1.5 ms; at ELIC (setting [8]), 38.5 ± 6.7 ms; on ELIC (setting [9]), 16.4 ± 2.2 ms.
